Consider three compounds from US6432962B1, “Benzophenones as inhibitors of IL-1β and TNF-α” (Leo Pharmaceutical Products Ltd. A/S, priority 2000, dated 2002).

pIC50: −log10 of the molar value.

The test system of data set [1] is IL-1β secretion, LPS stimulated peripheral blood mononuclear cells. In words: Inhibition of IL-1β secretion from LPS stimulated peripheral blood mononuclear cells. The format is cell-based. The settings on record: LPS stimulated human PBMC, 18 hours, ELISA; read-out: Inhibition of cytokines in vitro, median inhibition concentration (IC50), IL-1β. Here is the method:
(§1) To study the effect of the compound of the present invention in vitro the inhibition of the IL-1β and TNF-α secretion was measured using the following procedure: Cytokine production was measured in the media from lipopolysaccharide (LPS) stimulated peripheral blood mononuclear cells. The mononuclear cells were isolated from human peripheral blood by Lymphoprep® (Nycomed, Norway) fractionation and suspended in RPMI 1640 (growth medium) with foetal calf serum (FCS, 2%), at a concentration of 5×10^5 cells/ml. The cells were incubated in 24-well tissue culture plates in 1 mL aliquots. Test compounds were dissolved in dimethylsulfoxide (DMSO, 10 mM) and were diluted with the medium. Compounds were added to the cells for 30 minutes, then LPS ([…] final concentration) was added. The plates were incubated for 18 hours, and the concentration of IL-1β and TNF-α in the medium was determined by enzyme-linked immunosorbent assays. The median inhibitory concentrations (IC50) of the compounds were calculated.
(In general: In an ELISA, binding on a coated surface is turned into a signal by an enzyme label.)

Data set [2] relates to TNF-α secretion, LPS stimulated peripheral blood mononuclear cells. In words: Inhibition of TNF-α secretion from LPS stimulated peripheral blood mononuclear cells. The format is cell-based. The conditions noted are these: LPS stimulated human PBMC, 18 hours, ELISA; read-out: Inhibition of cytokines in vitro, median inhibition concentration (IC50), TNF-α. Here is the method: as §1

Data set [3] has as its system Human polymorphonuclear (PMN) granulocytes, superoxide anion generation. Kind of data set: Inhibition of PMN superoxide secretion (ferricytochrome C reduction). The format is cell-based. The conditions noted are these: human PMN primed with TNF-α, fMLP stimulated; read-out: Inhibition of PMN-superoxide production in vitro, median inhibition concentration (IC50). Here is the method:
The compounds of the present invention also show similar activities in the ability to inhibit PMN (polymorphonuclear) superoxide secretion which is also indicative of potentially useful anti-inflammatory drugs. The compounds were tested using the following procedure: Human polymorphonuclear (PMN) granulocytes were isolated from human blood by dextran sedimentation, Lymphoprep® fractionation and hypotonic lysis of contaminating erythrocytes. Superoxide anion generation was measured as the superoxide dismutase inhibitable reduction of ferricytochrome C (Madhu, S. B. et al, Inflammation, 16, 241, (1992)). The cells were suspended in Hanks' balanced salt solution, and incubated for 10 minutes at 37° C. with test compounds. The cells were primed by the addition of TNF-α (3 ng/mL final concentration) for 10 minutes, and then ferricytochrome C, (final concentration 750 μg/mL), bovine serum albumin (BSA, final concentration 1 mg/mL) and formylmethionyl-leucyl-phenylalanine (fMLP, final concentration 10^-7 M) were added for 3 minutes. The cells were chilled on ice, and were spun down. The optical densities in the cell-free supernatant was measured in a spectrophotometer. The median inhibitory concentration (IC50) of the compounds was calculated.

A short description of data set [4]: Log P of the tested compounds. It is filed as physicochemical.
In the next data set the target is T1, p38α MAP kinase (Homo sapiens, UniProt Q16539).
T1 construct: made in house; host or cells: COS-1 cells (transient co-transfection, anti-FLAG M2 immunoprecipitation)
Kind of data set: p38α MAP kinase assay. The format is biochemical. The settings on record: immunoprecipitated FLAG-p38α from COS-1 cells, GST-ATF-2 substrate; read-out: IC50 values for the inhibition of p38α MAP kinase, mean concentration.

T1 sequence (Q16539 whole entry): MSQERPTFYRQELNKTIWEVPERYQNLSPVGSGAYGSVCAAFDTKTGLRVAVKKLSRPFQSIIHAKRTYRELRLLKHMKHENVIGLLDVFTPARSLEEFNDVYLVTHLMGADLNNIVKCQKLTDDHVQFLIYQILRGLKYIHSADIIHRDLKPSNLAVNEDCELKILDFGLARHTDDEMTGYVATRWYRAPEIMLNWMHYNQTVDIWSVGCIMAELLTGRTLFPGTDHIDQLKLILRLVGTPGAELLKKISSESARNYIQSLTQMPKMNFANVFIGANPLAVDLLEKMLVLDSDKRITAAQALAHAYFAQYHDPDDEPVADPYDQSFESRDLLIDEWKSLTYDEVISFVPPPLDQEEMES
Method for p38α MAP kinase: Transient Expression of COS-1 Cells
On day one COS-1 cells were seeded in 143 cm^2 petridish with a density of 2×10^4 cells/cm^2 in growth medium. At day 2 the cells were co-transfected with 5 μg (total) of experimental plasmid DNA, expressing the FLAG-p38α and FLAG-MKK6(EE). The plasmids were introduced into the COS-1 cells in serum-free medium using DOTAP™ (Boehringer-Mannheim, Mannheim, Germany). Plasmid DNA was prepared and purified using the QIAGEN EndoToxin-free Maxiprep-500 kit (Hilden, Germany). Briefly, DNA and DOTAP™ were mixed for exactly 15 min. at 37° C. in the CO2 incubator. The transfection-mixture was hereafter transferred to a 15-mL falcon-tube and transfection-medium (DMEM with L-Glutamine and Pen./Strep. but without serum) was added to the transfection-mixture, followed by addition to the cell-monolayer. After 4 hours of incubation with DOTAP™ and plasmids, the medium containing double amount of serum was added to the cells bringing the final concentration of serum up to 10%. […]
The reaction was allowed to proceed for 30 min. at 30° C., and it was stopped by adding 40 μl of 2×SDS-sample buffer to the kinase reaction. […] The dried SDS-PAGE gel was exposed to a Phospho-Imager screen and the radioactive PHAS-1 bands were quantified by the STORM860 Phospho-Imager (Molecular Dynamics, Sunnyvale, Calif., USA) using the ImageQuaNT software.

For `Cc1ccccc1C(=O)c1ccc(Nc2cncc3ccccc23)cc1Cl` [Compound 114, 2-Chloro-4-(4-isoquinolylamino)-2′-methylbenzophenone], the pIC50 in data set [1] is 7.51; in data set [2], 8.30; in data set [3] it was 7.82; on p38α MAP kinase it was 7.89. The compound further registered a logP in data set [4] of 4.2.
`Cc1ccccc1C(=O)c1ccc(Nc2c[n+]([O-])cc3ccccc23)cc1Cl` [Compound 128, 2-Chloro-4((4-isoquinolyl-N-oxide)amino)-2′-methylbenzophenone]: the pIC50 in data set [1] was 7.80; in data set [2] it was 8.51; in data set [3], 7.90. In addition, the “Log P” value in data set [4] was determined as 4.4.
With `Cc1ccccc1C(=O)c1ccc(Nc2ccccc2N)cc1Cl` [Ref. comp., 4-(2-aminophenylamino)-2-chloro-2′-methylbenzophenone, reference compound], the results for the pIC50 in data set [1], in data set [2] and in data set [3] were 7.89, 8.15 and 8.30, respectively. Moreover, the log partition coefficient (logP) in data set [4] came out at 4.9.

In general, logP refers to the decadic logarithm of the partition coefficient of the neutral form, usually between octanol and water. What is called Log P is the decadic logarithm of the partition coefficient of the neutral form, usually between octanol and water. Low values mean a more hydrophilic compound, high ones a more lipophilic compound.
